# Measurements as given in US12729377B2, “RNAi agents and compositions for inhibiting expression of angiopoietin-like 3 (ANGPTL3), and methods of use” (Arrowhead Pharmaceuticals, Inc., priority 2017, dated 2026).
# In the oligonucleotide strings, read from the 5' end, every base follows the letter of its sugar. An asterisk marks phosphorothioate; unmarked linkages are phosphodiester. Other units and linkages are bracketed, terminal groups are in braces. A string of capitals states the bases alone. {NAG37} = tridentate N-acetyl-galactosamine targeting ligand, structure (NAG37)s; [invAb] = inverted abasic unit; m = 2'-O-methyl; f = 2'-fluoro
# Key:
# ANGPTL3 mRNA = test: Example 12: liver ANGPTL3 mRNA by RT-qPCR in LDLR knockout mice; format: in vivo, LDLR KO mice; details: for Avg Relative ANGPTL3 mRNA, Normalized to Control: normalized to Group 1 day 15
# Excerpt: To evaluate the effect of RNAi agent administration in a disease model, mice having a genetic mutation for the LDL receptor (referred to herein as LDLR KO mice) were commercially obtained (The Jackson Laboratory). The LDLR KO mice are homozygous for the Ldlr^tm1Her mutation, and have elevated serum cholesterol levels, particularly when placed on a high fat diet. For three weeks prior to the onset of the study, thirty-nine (39) LDLR KO mice were placed on a high fat diet (Teklad Custom Diets TD.88137). An additional eight (8) LDLR KO mice were placed on a normal chow diet over the same three-week period. Pre-dose serum samples were taken on day −15 and day −1 after a four hour fast. At day 1, each mouse was given a single subcutaneous administration of 200 μl/30 g animal body weight containing the respective mg/kg dose of an ANGPTL3 RNAi agent in D5W (dextrose in 5% water), control (D5W) with no RNAi agent, or a control RNAi agent that included a nucleotide sequence designed to target the Hepatitis B Virus (HBV) genome. A second injection of the same formulation was administered to the animals on day 29. The dosing regimen for the study is recited in the following Table 60:
# Each mouse remained on its respective diet through the duration of study. The RNAi agent tested (AD05488) included a modified sequence and an N-acetyl-galactosamine-containing targeting ligand conjugated to the 5′ terminal end of the sense strand. (See Tables 3, […] modified sequences and targeting ligand structures). The injections were performed between the skin and muscle (i.e. subcutaneous injections) into the loose skin over the neck and shoulder area. Serum was collected on days 8, 15, 22, 29 (pre-second dose), 36, 43, 50, and 57. LDLR KO mice were fasted for four hours prior to each collection. On day 15, four (4) LDLR KO mice from Groups 1, 2, and 3 (i.e., the groups being administered the high fat “Western” diet) were sacrificed after serum collection, and on day 29, an additional four (4) LDLR KO mice from Groups 1, 2, and 3 were sacrificed after serum collection, for the purpose of performing mRNA assessments.
# Additionally, ANGPTL3 mRNA levels were also assessed. On day 15, four (4) mice were sacrificed from each of Groups 1, 2, and 3. On day 29, an additional four (4) mice were sacrificed from each of Groups 1, 2, and 3. On day 57, all remaining animals from all Groups were sacrificed. At sacrifice, livers were harvested, and approximately 100 mg liver samples from the median lobes were collected and snap-frozen in liquid nitrogen for RNA isolation. Levels of ANGPTL3 mRNA in the mice livers were then measured by RT-qPCR, and normalized to the mRNA levels of the mice in Group 1 (high fat “Western” diet; D5W administration; day 15 sacrifice), the results of which are set forth in the following Table 66: […]
# ANGPTL3 gene = test: Example 14: RNAi agent and statin, serum LDL in LDLR knockout mice; format: in vivo, LDLR KO mice
# Excerpt: To evaluate the effect of co-administration of RNAi agents and statins in a disease model, LDLR KO mice were commercially obtained (The Jackson Laboratory). For three weeks prior to the onset of the study, forty-one (41) male 7 to 8 week old LDLR KO mice were placed on a high fat (“western”) diet (Teklad Custom Diets TD.88137), and remained on that diet throughout the duration of the study. Pre-dose serum samples were taken on study Day 1 after a four hour fast. The dosing regimen for the study is recited in the following Table 72:
# • Mice were treated at 40 mg/kg for the first 11 days, then switched to 20 mg/kg thereafter.
# The vehicle used for the oral gavage in the study was a 1:1 mixture of Ora-Plus®: Ora-Sweet® solution, which were acquired commercially. For the preparation of the atorvastatin oral gavage administrations, the respective desired dose of atorvastatin was first dissolved in sterile water (0.3 mL water per 1 mL of desired formulation) and vortexed until smooth, followed by the addition of a mixture of 1:1 Ora-Plus®: Ora-Sweet® solution (0.7 mL vehicle per 1 mL of desired formulation) and vortexed. On day 1 and for each day thereafter an oral gavage dose was administered for each of the Groups except for Group 2. On Day 23, Groups 1, 2, 3, and 4 received a single subcutaneous administration of 2.5 mg/kg dose ([…] solution) of an ANGPTL3 RNAi agent in D5W (dextrose in 5% water), or vehicle control (D5W) with no RNAi agent.
# The RNAi agent tested (AD05488) included a modified sequence and an N-acetyl-galactosamine-containing targeting ligand conjugated to the 5′ terminal end of the sense strand. (See Tables 3, 4, and 5 for modified sequences and targeting ligand structures). The injections were performed between the skin and muscle (i.e. subcutaneous injections) into the loose skin over the neck and shoulder area. Serum was collected on days 8, 15, 22 (pre-RNAi agent injection), 29, 36, 43, and 50. LDLR KO mice were fasted for four hours prior to each collection.
# ANGPTL3 protein levels in serum were measured by ELISA assay (R&D Systems), according to the manufacturer's recommendations. Among other biomarkers, triglycerides, total cholesterol, and low-density lipoprotein (LDL) in serum were measured on a Cobas® Integra 400 (Roche Diagnostics), according to the manufacturer's recommendations.
# The ANGPTL3 protein levels, triglyceride levels, total cholesterol levels, HDL levels, and LDL levels for each animal were normalized. For normalization, respective levels of ANGPTL3 protein, TG, total cholesterol, or LDL for each animal at a time point was divided by the pre-treatment level of expression in that animal (in this case pre-dose levels on Day 1) to determine the ratio of expression “normalized to pre-treatment.” Data from the study set forth in this Example are shown in the following Tables 73-76: […]
substance,measurement,setting,value
"AD05488: RNAi agent duplex: antisense AM07235-AS, sense AM07234-SS (antisense mU*fA*mC*fUmGfAmUfCmAfAmAfUmAfUmGfUmUfGmAfG*mC; sense {NAG37}*[invAb]*mGmCmUmCmAmAmCmAfUfAfUmUmUmGmAmUmCmAmGmUmA*[invAb])","Avg Relative ANGPTL3 mRNA, Normalized to Control","ANGPTL3 mRNA; 3.0 mg/kg days 1 and 29, high fat diet, day 57 sacrifice",0.024
same,"Avg Relative ANGPTL3 mRNA, Normalized to Control","ANGPTL3 mRNA; 3.0 mg/kg days 1 and 29, normal chow, day 57 sacrifice",0.060
same,"Avg Relative ANGPTL3 mRNA, Normalized to Control","ANGPTL3 mRNA; 3.0 mg/kg, high fat diet, day 15 sacrifice",0.019
same,"Avg Relative ANGPTL3 mRNA, Normalized to Control","ANGPTL3 mRNA; 3.0 mg/kg, high fat diet, day 29 sacrifice",0.032
same,reduction in ANGPTL3 mRNA levels,"ANGPTL3 mRNA; both high fat Western diet and normal chow-fed diet, LDLR KO mice",significant reduction
same,Avg LDL normalized to pre-treatment,"ANGPTL3 gene; Group 2: no gavage, 2.5 mg/kg AD05488 SC on day 23, Day 8 (pre-RNAi agent injection)",0.893
same,Avg LDL normalized to pre-treatment,"ANGPTL3 gene; Group 2: no gavage, 2.5 mg/kg AD05488 SC on day 23, Day 15 (pre-RNAi agent injection)",1.051
same,Avg LDL normalized to pre-treatment,"ANGPTL3 gene; Group 2: no gavage, 2.5 mg/kg AD05488 SC on day 23, Day 22 (pre-RNAi agent injection)",1.113
same,Avg LDL normalized to pre-treatment,"ANGPTL3 gene; Group 2: no gavage, 2.5 mg/kg AD05488 SC on day 23, Day 29",0.653
same,Avg LDL normalized to pre-treatment,"ANGPTL3 gene; Group 2: no gavage, 2.5 mg/kg AD05488 SC on day 23, Day 36",0.492
same,Avg LDL normalized to pre-treatment,"ANGPTL3 gene; Group 2: no gavage, 2.5 mg/kg AD05488 SC on day 23, Day 43",0.443
same,Avg LDL normalized to pre-treatment,"ANGPTL3 gene; Group 2: no gavage, 2.5 mg/kg AD05488 SC on day 23, Day 50",0.480
same,Avg LDL normalized to pre-treatment,"ANGPTL3 gene; Group 3: 10 mg/kg daily oral gavage atorvastatin, 2.5 mg/kg AD05488 on day 23, Day 8 (pre-RNAi agent injection)",0.692
same,Avg LDL normalized to pre-treatment,"ANGPTL3 gene; Group 3: 10 mg/kg daily oral gavage atorvastatin, 2.5 mg/kg AD05488 on day 23, Day 15 (pre-RNAi agent injection)",0.537
same,Avg LDL normalized to pre-treatment,"ANGPTL3 gene; Group 3: 10 mg/kg daily oral gavage atorvastatin, 2.5 mg/kg AD05488 on day 23, Day 22 (pre-RNAi agent injection)",0.659
same,Avg LDL normalized to pre-treatment,"ANGPTL3 gene; Group 3: 10 mg/kg daily oral gavage atorvastatin, 2.5 mg/kg AD05488 on day 23, Day 29",0.422
same,Avg LDL normalized to pre-treatment,"ANGPTL3 gene; Group 3: 10 mg/kg daily oral gavage atorvastatin, 2.5 mg/kg AD05488 on day 23, Day 36",0.312
same,Avg LDL normalized to pre-treatment,"ANGPTL3 gene; Group 3: 10 mg/kg daily oral gavage atorvastatin, 2.5 mg/kg AD05488 on day 23, Day 43",0.264
same,Avg LDL normalized to pre-treatment,"ANGPTL3 gene; Group 3: 10 mg/kg daily oral gavage atorvastatin, 2.5 mg/kg AD05488 on day 23, Day 50",0.256
same,Avg LDL normalized to pre-treatment,"ANGPTL3 gene; Group 4: 20 mg/kg* daily oral gavage atorvastatin (40 mg/kg first 11 days), 2.5 mg/kg AD05488 on day 23, Day 8 (pre-RNAi agent injection)",0.572
same,Avg LDL normalized to pre-treatment,"ANGPTL3 gene; Group 4: 20 mg/kg* daily oral gavage atorvastatin (40 mg/kg first 11 days), 2.5 mg/kg AD05488 on day 23, Day 15 (pre-RNAi agent injection)",0.515
same,Avg LDL normalized to pre-treatment,"ANGPTL3 gene; Group 4: 20 mg/kg* daily oral gavage atorvastatin (40 mg/kg first 11 days), 2.5 mg/kg AD05488 on day 23, Day 22 (pre-RNAi agent injection)",0.755
same,Avg LDL normalized to pre-treatment,"ANGPTL3 gene; Group 4: 20 mg/kg* daily oral gavage atorvastatin (40 mg/kg first 11 days), 2.5 mg/kg AD05488 on day 23, Day 29",0.434
same,Avg LDL normalized to pre-treatment,"ANGPTL3 gene; Group 4: 20 mg/kg* daily oral gavage atorvastatin (40 mg/kg first 11 days), 2.5 mg/kg AD05488 on day 23, Day 36",0.240
same,Avg LDL normalized to pre-treatment,"ANGPTL3 gene; Group 4: 20 mg/kg* daily oral gavage atorvastatin (40 mg/kg first 11 days), 2.5 mg/kg AD05488 on day 23, Day 43",0.217
same,Avg LDL normalized to pre-treatment,"ANGPTL3 gene; Group 4: 20 mg/kg* daily oral gavage atorvastatin (40 mg/kg first 11 days), 2.5 mg/kg AD05488 on day 23, Day 50",0.242
same,total reductions in LDL,"ANGPTL3 gene; co-administration of atorvastatin and RNAi agent (Groups 3 and 4), LDLR KO mice on high fat diet",~ 80%
